US7183430B2, “Compounds which can block the response to chemical substances or thermal stimuli or mediators of inflammation of nociceptors, production method thereof and compositions containing same” (Diverdrugs, S.L., priority 2002, dated 2007)

What was measured:
[1] = acute inflammatory pain model caused by subcutaneous capsaicin (paw lick latency); type: in vivo; settings: mice, intraperitoneal; for behavioral latency time (paw lick): carrier 20±5 s
Description: The analgesic activity of the products was determined by assessing their effect in the acute inflammatory pain model caused by subcutaneous administration of the capsaicin irritant. Administration of this vanilloid causes a neurogenic inflammation in animals with acute painful burning sensation resulting in thermal and mechanical hyperalgesia. The behavioral latency time to paw lick after intraperitoneal administration of the compounds to mice at different doses was monitored.

[2] = tested on: primary trigeminal neuronal cultures; assay: entrance of calcium cation stimulated by capsaicin in neuronal cultures; type: cell-based
[3] = 52° C. hot plate nociception test; type: in vivo; settings: mice, 10 mg/Kg intraperitoneal, carrier 11.5±2 s
Description: A 52° C. hot plate test was used as a nociception test, where the latency time to paw withdrawal or jump of the animal was monitored. The compounds were intraperitoneally administered to mice at a dose of 10 mg/Kg. The behavioral test was carried out at 30, 60 and 120 minutes after the administration of the compounds.

[4] = tested on: afferent nerve fibers from the knee of the rat; assay: nervous activity caused by capsaicin in afferent nerve fibers from the knee

With `N=C(N)NCCC[C@H](N)C(=O)N(CCc1ccc(Cl)cc1Cl)CC(=O)N(CCc1ccc(Cl)cc1Cl)CC(N)=O` [Example 1] the “behavioral latency time (paw lick)” value ([1]; 2 mg/Kg) was 90 ± 10 s, the “behavioral latency time (paw lick)” value ([1]; 5 mg/Kg) was 190 ± 50 s and the “behavioral latency time (paw lick)” value ([1]; 10 mg/Kg) was 250 ± 40 s. For the same compound, the “duration of the behavioral response” value ([1]; 2 to 10 mg/Kg) was “decreased as the dose of the compound increased”, the “inhibition of the entrance of calcium cation stimulated by capsaicin” value [2] was 85% and the “latency to the first response (paw withdrawal or jump)” value (from here on “latency to the first response”) ([3]; 30 minutes after) was 20 ± 4 s. The “latency to the first response” value ([3]; 60 minutes after) was 18 ± 3 s, the “latency to the first response” value ([3]; 120 minutes after) was 18 ± 4 s and the “block of the nervous activity caused by capsaicin” value [4] was 80%.
